Assay results taken from patent publication US7771726B2, “Use of synthetic glycolipids as universal adjuvants for vaccines against cancer and infectious diseases” (New York University, priority 2003, dated 2010).

Legend:
[1] = test system: Th1-type cytokines, IFN-γ and IL-12; Th2 cytokine, IL-4; experiment: cytokine production in vivo after administration to mice; conditions: as compared to α-GalCer
Description: (§1) As reported in copending U.S. patent application Ser. No. 10/206,155, α-Galactosylceramide (α-GalCer) is a glycolipid ligand for natural killer T (NKT) cells, which respond to the glycolipid and produce both interferon (IFN)-γ and interleukin (IL)-4. […] It has now been discovered that synthetic C-glycoside analogs of α-GalCer of general formula (I) act as an NKT cell ligand and display 100-1000 fold higher activity against tumor and malaria, by preferentially inducing the production of Th1-type cytokines, IFN-γ and IL-12, in vivo.

[2] = test system: human NKT cells; experiment: stimulation of human NKT cells; format: cell-based
[3] = test system: Gag-specific CD8+ and CD4+ T cell response; experiment: adjuvant activity with DNA vaccine encoding an HIV Gag sequence (FIGS. 3A and 3B); format: in vivo; conditions: for Gag-specific CD8+ T cell response: FIG. 3A
Description: FIGS. 3A and 3B depict the adjuvant activity of α-GalCer and CRONY 101, and the enhancement of a Gag-specific CD8+ T-cell response elicited by a DNA vaccine encoding an HIV-Gag sequence.
Further studies used a naked DNA plasmid encoding an HIV Gag sequence, as a vaccine.

[4] = test system: melanoma metastases; experiment: melanoma metastases disease model, activity compared to α-GalCer; format: in vivo, mice; conditions: disease model requiring Th1-type responses; relative to α-GalCer
Description: as §1

[5] = test system: malaria antigen-specific CD8+ T-cell responses; experiment: adjuvant activity with suboptimal dose of recombinant adenovirus expressing a malarial antigen (FIG. 2); format: in vivo, mice
Description: FIG. 2 depicts the adjuvant activity of CRONY 101, and the enhancement of a malaria-specific CD8+ T-cell response elicited by a recombinant adenovirus expressing a malaria antigen; and
In FIG. 2, the number of IFN secreting CD8+ T cells per million splenocytes is greater for CRONY 101 than for α-GalCer.
Thus, co-administration of α-C-GalCer to mice immunized with a suboptimal dose of a recombinant adenovirus expressing a malarial antigen enhanced protective antimalaria immunity and the level of malaria antigen-specific CD8^+ T-cell responses. Coadministration of 1 ng of CRONY 101 was compared to administration of 1 μg of α-GalCer.

[6] = test system: murine NKT cells; experiment: stimulation of murine NKT cells; format: cell-based
[7] = test system: malaria; experiment: malaria disease model in mice, activity compared to α-GalCer; format: in vivo; conditions: disease model requiring Th1-type responses; relative to α-GalCer
Description: as §1

[8] = test system: mouse CD1d-restricted lymphocytes that express a semi-invariant TCR; conditions: Kawano et al., 1997; cited from earlier work
[9] = test system: human CD1d-restricted lymphocytes that express a semi-invariant TCR; conditions: Kawano et al., 1997; cited from earlier work
[10] = test system: HIV specific CD4+/CD8+ T-cell responses; experiment: adjuvant effects on DNA vaccination in mice (FIG. 1); format: in vivo
Description: FIG. 1 depicts the adjuvant effects of α-GalCer on DNA vaccination in mice, and the enhancement of HIV-specific CD4+/CD8+ T-Cell responses;
FIG. 1 depicts the adjuvant effects of the α-GalCer on DNA vaccination in mice.

[11] = DNA vaccine encoding an HIV Gag sequence
[12] = co-administration, mice immunized with suboptimal dose of recombinant adenovirus

SMILES	population of the Th2 cytokine, IL-4 [1]	production of the Th1-type cytokines [1]	stimulation of human NKT cells [2]	Gag-specific CD8+ T cell response [3, 11]	Gag-specific CD4+ T cell response ([3]; FIG. 3B, DNA vaccine encoding a HIV-Gag sequence)	adjuvant activity compared with α-GalCer ([3]; FIGS. 3A and 3B, DNA vaccine encoding an HIV Gag sequence)	more potent activity than α-GalCer, melanoma metastases [4]	increased number of malaria specific CD8+ cells ([5]; 1 ng of CRONY 101 as compared to 1 μg of α-GalCer)	number of IFN secreting CD8+ T cells per million splenocytes ([5]; FIG. 2, compared with α-GalCer)	adjuvant activity compared with α-GalCer ([5]; FIG. 2, recombinant adenovirus expressing a malaria antigen)	level of malaria antigen-specific CD8+ T-cell responses [5, 12]	protective antimalaria immunity [5, 12]	stimulation of murine NKT cells [6]	more potent activity than α-GalCer, malaria [7]	concentrations at which recognized [8]	concentrations at which recognized [9]	HIV specific CD4+/CD8+ T-cell responses [10]
CCCCCCCCCCCCCCCCCCCCCCCCCC(=O)N[C@@H](CCC1OC(CO)[C@H](O)C(O)[C@@H]1O)[C@H](O)[C@H](O)CCCCCCCCCCCCCC (stereo partly drawn) [CRONY 101, 3′S,4′S,5′R-3′-N-hexacosanoyl-4′,5′-dihydroxynonadecyl-α-C-D-galactopyranoside]	decreased	prolonged production	stimulate	enhances	enhancing	more potent	100 fold	⅚	greater	more potent	enhanced	enhanced	stimulate	1000 fold	–	–	–
CCCCCCCCCCCCCCCCCCCCCCCCCC(=O)N[C@@H](CO[C@H]1O[C@H](CO)[C@H](O)[C@H](O)[C@H]1O)[C@H](O)[C@H](O)CCCCCCCCCCCCCC [α-GalCer, α-galactosyl-ceramide, reference compound]	–	–	stimulate	enhancement	–	–	–	–	–	–	–	–	stimulate	–	picomolar	picomolar	enhancement
